“And” between values parts separate entries of the source, which are not always exact repeats. Equal entries are not always repeated. Ends that are not written are not given here.
What was measured:
control rats = assay: Plasma AVP and apelin-IR levels in control rats (RIA); format: in vivo, rat; design: Apelin / AVP: unit not given here
Experimental: (§1) 187 Apelin radioimmunoassay
(§2) 189 until use for apelin RIA.
(§3) The supernatants were collected and
(§4) The samples were dried and dissolved in
(§5) 201 centrifuged (17000 x g, 4°C, 20 min). The supernatant (4 ml) was collected, and mixed with
(§6) The columns were then treated as described in
(§7) Samples (0.1ml) w ere mixed with 125I-
(§8) 212 used this radioligand instead of [Glp65, Nle75, Tyr77] [125I]-apelin13 since the substitution of
(§9) 214 derivatives as described previously by 3,4.
(§10) 216 incubated for 10 min at room temperature.
(§11) This antiserum identified the apelin present in the
(§12) Most of the apelin in human plasma was
(§13) 252 TechMedILL platfor m (Illkirch) reviewed and approved by the agriculture ministry regulating
(§14) 256 Male Sprague-Dawley rats were killed by decapitation, and trunk blood was collected on ice
(§15) 257 (into 50 µl of 0.3M EDTA (pH 7.4) per 1 ml of blood). Samples were centrifuged (2,600 x g,
(§16) 258 4°C, 20 min), and the resulting plasma was split into 500 µl aliquots, to which we added 168
(§17) 259 µl of 3N HCl before storage at -80°C. The AVP RIA was performed as previously described
(§18) 260 5, using a specific AVP-[Arg8] antibody (final dilution, 1/4.5) and [125I]-(Tyr2Arg8)-AVP
(§19) 261 (2200 Ci/mmol, Perkin-Elmer, Billerica, MA; 15000 dpm) as a tracer. […]

[1] = tested on: hyponatremic rats (AVP 30 ng/h); assay: Effects of LIT01-196 and tolvaptan in rat model of AVP-induced hyponatremia; format: in vivo
Experimental: Meloxicam was administered postoperatively for analgesia. Animals were then individually housed in metabolic cages (Techniplast), and given a semi-liquid diet consisting of 25 ml Gel-Diet Breeding-10 (SAFE, Augy, France) mixed with 25 ml tap water per day, with water available ad libitum. Animal weight, water, and food consumption were measured daily. Urine was collected daily, urinary electrolytes (Na^+, K^+, Cl^−) were determined with an ISE 3000 (Caretium Medical Instruments, Shenzhen, China) and urinary osmolality was measured with a Cryobasic 1 osmometer (Astori Tecnica, Poncarale, Italy). Blood samples were collected on ice, before implantation of the osmotic minipump, and before drug administration, under isoflurane anesthesia, from the tail vein (4 µl of lithium heparinate (1600 IU/ml) for 400 µl of blood). The blood samples were immediately centrifuged (4 °C, 2600 × g, 20 min), and plasma electrolyte (Na^+, K^+, Cl^−) levels were quantified with an ISE 3000. On the last day of the experiment, blood was also collected on ice by intracardiac puncture. This blood sample was collected into lithium heparinate under isoflurane anesthesia; plasma electrolyte levels were determined as described above and the animals were immediately killed by carbon monoxide inhalation.

[2] = tested on: normonatremic Sprague-Dawley rats; assay: Effects of s.c. administration on metabolic parameters in normonatremic rats; format: in vivo, rat
patients = settings: cited from earlier work
hyponatremic rats = assay: Plasma AVP and apelin-IR levels in hyponatremic rats (RIA); format: in vivo, rat
Experimental: as §1, §2, §3, §4, §5, §6, §7, §8, §9, §10, §11, §12, §13, §14, §15, §16, §17, §18, §19

anti-K17F serum [3] = assay: Inhibition of [125I]-pE13F binding to anti-K17F serum (apelin RIA, cross-reactivity); design: species or system rabbit; settings: read-out: IC50, recognition by antibody directed against K17F, antiserum 1/4500
Experimental: as §6, §7, §8, §9, §10, §11
Most of the apelin in human plasma was […]

anti-K17F serum [4] = settings: ref De Mota et al, PNAS, 2004; cited from earlier work
Experimental: The columns were then treated as described in 207 the paragraph above.

[5] = 900 nmol/kg SC (tolvaptan 0.4.SC [sic]), normonatremic rats, single animals

Cc1ccccc1C(=O)Nc1ccc(C(=O)N2CCCC(O)c3cc(Cl)ccc32)c(C)c1 (stereo not shown) [tolvaptan, reference compound]
plasma apelin-IR levels versus control rats (control rats; 3 h after 6700 nmol/kg s.c.): similar
plasma apelin/AVP ratio versus saline (control rats; 3 h after 6700 nmol/kg s.c.): similar
plasma AVP levels, higher than in animals receiving saline (control rats; 3 h after s.c., tolvaptan 6700 nmol/kg, LIT01-196 900 nmol/kg): 147%
AVP (control rats; plasma AVP, Tolvaptan 6700 nmol/kg SC, individual animals (Fig. S4F source data)): 46.8225 and 42.0318 and 57.2512 and 20.2981 and 21.5164 and 46.682
Apelin (control rats; plasma apelin-IR, Tolvaptan 6700 nmol/kg SC, individual animals (Fig. S4E source data)): 782.319 and 460.81 and 574.125 and 749.499 and 564.407 and 576.365
apelinAVPratio (control rats; plasma apelin/AVP ratio, Tolvaptan 6700 nmol/kg SC, individual animals (Fig. S4G source data)): 16.7082 and 10.9634 and 10.0282 and 36.9246 and 26.2315 and 12.3466
increase in urine output 24 h after s.c. administration ([1]; 900 nmol/kg s.c., rats receiving 30 ng/h AVP and liquid diet): 9.5 ± 2.9 ml/24 h/100 g
increase in urine output 24 h after s.c. administration ([1]; 6700 nmol/kg s.c., rats receiving 30 ng/h AVP): 27 ± 9.0 ml/24 h/100 g
Urine osmolality (3 hours) [2, 5]: 400 and 540 and 520 and 404 and 412
Urine osmolality (6 hours) [2, 5]: 484 and 656 and 532 and 492 and 496
Urine osmolality (24 hours) [2, 5]: 772 and 1396 and 1244 and 1552 and 1324 and 1300 and 1592 and 1040 and 1416 and 1184 and 2300 and 1048
increase in water intake ([2]; 900 nmol/kg s.c., 24 h): 37%
increase in water intake to food intake ratio ([2]; 900 nmol/kg s.c., 24 h): 24%
increase in 24-h urine output relative to saline ([2]; 900 nmol/kg s.c., normonatremic rats): 77%
decrease in urine osmolality ([2]; 900 nmol/kg s.c., normonatremic rats, 24 h): 40%
Sodium excretion fraction ([2]; LIT01-196 900 nmol/kg, tolvaptan 6700 nmol/kg s.c., 24 h): not changed
Water excretion fraction ([2]; Tolvaptan 6700 nmol/kg SC, individual animals (Fig. S4C source data)): 0.8154 and 1.026 and 2.311 and 0.5818 and 0.7955 and 0.7
Sodium excretion fraction ([2]; Tolvaptan 6700 nmol/kg SC, individual animals (Fig. S4D source data)): 0.6016 and 0.6502 and 0.5049 and 0.3349 and 0.4657 and 0.6432
Water to food ratio ([2]; normonatremic rats, 900 nmol/kg SC, individual animal values (source data Fig. 4L)): 1.532 and 1.653 and 1.89 and 1.641 and 1.608
patients with overly rapid sodium correction (patients; 7.5 mg per day, hyponatremia patients, baseline serum sodium <125 mmol/l): 23%
patients with ADPKD discontinuing treatment for aquaresis-related events (patients): 8%
plasma AVP and apelin levels versus AVP + saline (hyponatremic rats; 6700 nmol/kg s.c., 3 h): similar
Plasma AVP (hyponatremic rats; AVP 30 ng/h rats, individual animals (Fig. 6A source data)): 39.2062 and 41.6048 and 44.1878 and 29.3355 and 51.7522 and 30.996 and 44.9258 and 45.018
Plasma apelin (hyponatremic rats; AVP 30 ng/h rats, individual animals (Fig. 6B source data)): 312 and 375 and 335 and 404 and 283 and 315 and 384 and 365
Apelin to AVP ratio (hyponatremic rats; AVP 30 ng/h rats, individual animals (Fig. 6C source data)): 7.958 and 9.013 and 7.581 and 13.7717 and 5.468 and 10.1626 and 8.547 and 8.108

Fluoro-K16P: not recognized by the antibody directed against K17F (KFRRQRPRLSHKGPMP; also: fluorescent label, site and dye not given here; UniProt Q9ULZ1 61-76, looked up, fragment) [reference compound]
IC50 (anti-K17F serum [3]): > 1000 nM

neuropeptide Y
cross-reactivity with the apelin antiserum (anti-K17F serum [4]): Negligible cross-reactivity

angiotensin III (RVYIHPF; Angiotensin-3; UniProt P01019 26-32, looked up)
cross-reactivity with the apelin antiserum (anti-K17F serum [4]): Negligible cross-reactivity

— PMC7804859, “A metabolically stable apelin-17 analog decreases AVP-induced antidiuresis and improves hyponatremia” (Nature Communications, 2021)
